Consider 18 compounds from ChEMBL document CHEMBL4368865, “Synthesis, characterization and cytotoxic activity evaluation of ginsengdiol oxidation and nitrogen hybrid derivatives” (Medchemcomm, 2018).

In one assay the test system is HeLa. Description: Cytotoxicity against human HeLa cells assessed as inhibition of cell proliferation after 48 hrs by MTT assay. It is filed as functional, cell-based. In general terms: Tetrazolium assays rely on reduction of a dye to a coloured formazan, in cell work by metabolically active cells.
For a further assay, the system named is A549. Description: Cytotoxicity against human A549 cells assessed as inhibition of cell proliferation after 48 hrs by MTT assay. Type of assay: functional, cell-based. The settings on record: A549, 48 h.
The nature of assay [1]: Cytotoxicity against human 8901 cells assessed as inhibition of cell proliferation after 48 hrs by MTT assay. It is filed as functional, cell-based.
For a further assay, the system named is U-87 MG. Description: Cytotoxicity against human U87 cells assessed as inhibition of cell proliferation after 48 hrs by MTT assay. Type of assay: functional, cell-based, U-87MG ATCC.
Assay [2] is described as follows: Cytotoxicity against human IOSE-144 cells assessed as inhibition of cell proliferation after 48 hrs by MTT assay. The settings on record: IOSE-144, 48 h. It is filed as cell-based.
In the next assay the test system is MCF7. Description: cells. The following applies: Homo sapiens, MCF7, 48 h. Type of assay: functional, cell-based.

A value given as a limit tells only on which side of the number the result lay.

Description for MCF7: Cytotoxicity against human MCF7 cells assessed as inhibition of cell proliferation after 48 hrs by MTT assay

On to `CC(C)(O)CCC[C@@](C)(O)[C@H]1CC[C@]2(C)[C@@H]1[C@H](O)C[C@@H]1[C@@]3(C)CC[C@H](O)C(C)(C)[C@@H]3CC[C@]12C`, for which the IC50 – broadly, the concentration that inhibits the measured activity by half – with HeLa is 19.6 µM; with A549, 27.9 µM; in assay [1], 46.5 µM; with U-87 MG it was 25.1 µM; in assay [2], > 100 µM.
Take `COC(C)(C)CCC[C@@](C)(O)[C@H]1CC[C@]2(C)[C@@H]1[C@H](O)C[C@@H]1[C@@]3(C)CC[C@H](O)C(C)(C)[C@@H]3CC[C@]12C`: the IC50 was 29.4 µM with HeLa; 29.3 µM in the assay with A549; 44.6 µM in the assay with MCF7; 38.5 µM in assay [1]; 19.5 µM with U-87 MG; > 100 µM in assay [2].
In the case of `CC(C)(O)CCC[C@@](C)(O)[C@H]1CC[C@]2(C)[C@@H]1C(=O)C[C@@H]1[C@@]3(C)CCC(=O)C(C)(C)[C@@H]3CC[C@]12C`, the IC50 in the assay on HeLa is > 100 µM; in the assay on A549 it was 90 µM; with MCF7, 65.1 µM; in assay [1], > 100 µM; in the assay on U-87 MG it was > 100 µM; in assay [2] it was > 100 µM.
On to `CC(C)(O)CCC[C@@](C)(O)[C@H]1CC[C@]2(C)[C@@H]1[C@H](O)C[C@@H]1[C@@](C)(CC(=O)O)[C@H](C(C)(C)C(=O)O)CC[C@]12C`, for which the IC50 (in the assay on HeLa; in the assay on A549; with MCF7; in assay [1]; with U-87 MG; in assay [2]) was > 100 µM throughout.
Consider `CC1(C)CCC[C@](C)([C@H]2CC[C@]3(C)[C@@H]2[C@H](O)C[C@@H]2[C@@]4(C)Cc5cnoc5C(C)(C)[C@@H]4CC[C@]23C)O1`, for which the IC50 with HeLa was > 100 µM; in the assay with A549, 67.3 µM; in the assay on MCF7, > 100 µM; in assay [1], > 100 µM; in the assay with U-87 MG, > 100 µM; in assay [2], > 100 µM.
For the compound `COC(C)(C)CCC[C@@](C)(O)[C@H]1CC[C@]2(C)[C@@H]1[C@H](O)C[C@@H]1[C@@]3(C)C=C(O)C(=O)C(C)(C)[C@@H]3CC[C@]12C`, the IC50 in the assay on HeLa is 39 µM; with A549, 21.6 µM; in the assay on MCF7, 35.7 µM; in assay [1] it was 25.9 µM; in the assay with U-87 MG it was 20.7 µM; in assay [2], > 100 µM.
With `CC(C)(O)CCC[C@@](C)(O)[C@H]1CC[C@]2(C)[C@@H]1[C@H](O)C[C@@H]1[C@@]3(C)C=C(O)C(=O)C(C)(C)[C@@H]3CC[C@]12C`, the IC50 with HeLa was 50.9 µM; with A549, 24.3 µM; in the assay on MCF7, 46.2 µM; in assay [1], 87.8 µM; in the assay with U-87 MG, 45.4 µM; in assay [2] it was > 100 µM.
On to `COC(C)(C)CCC[C@@](C)(O)[C@H]1CC[C@]2(C)[C@@H]1[C@H](O)C[C@@H]1[C@@](C)(CC(=O)O)[C@H](C(C)(C)C=O)CC[C@]12C`, for which the half-maximal inhibitory concentration (IC50) with HeLa was > 100 µM; in the assay with A549, 85 µM; in the assay on MCF7, > 100 µM; in assay [1], > 100 µM; with U-87 MG it was > 100 µM; in assay [2], > 100 µM.
In the case of `COC(C)(C)CCC[C@@](C)(O)[C@H]1CC[C@]2(C)[C@@H]1C(=O)C[C@@H]1[C@@]3(C)CC[C@H](O)C(C)(C)[C@@H]3CC[C@]12C`, the IC50 in the assay with HeLa was 18 µM; with A549, 37.1 µM; with MCF7, 44.9 µM; in assay [1], 81.3 µM; with U-87 MG it was 32.7 µM; in assay [2], > 100 µM.
Turning to `COC(C)(C)CCC[C@@](C)(O)[C@H]1CC[C@]2(C)[C@@H]1C(=O)C[C@@H]1[C@@]3(C)CCC(=O)C(C)(C)[C@@H]3CC[C@]12C`, the IC50 in the assay on HeLa is > 100 µM; in the assay on A549, > 100 µM; in the assay on MCF7, 98.5 µM; in assay [1] it was > 100 µM; in the assay on U-87 MG, > 100 µM; in assay [2], > 100 µM.
`CC(C)(O)CCC[C@@](C)(O)[C@H]1CC[C@]2(C)[C@@H]1C(=O)C[C@@H]1[C@@]3(C)Cc4nccnc4C(C)(C)[C@@H]3CC[C@]12C`: the IC50 in the assay on HeLa is > 100 µM; in the assay with A549, 19.7 µM; in the assay on MCF7, 39.1 µM; in assay [1], > 100 µM; in the assay with U-87 MG it was > 100 µM; in assay [2], > 100 µM.
With `Cc1ncc2c(n1)C(C)(C)[C@@H]1CC[C@]3(C)[C@H](C[C@@H](O)[C@@H]4[C@@H]([C@@]5(C)CCCC(C)(C)O5)CC[C@]43C)[C@@]1(C)C2`, the IC50 is > 100 µM with HeLa; > 100 µM in the assay with A549; 83 µM in the assay on MCF7; > 100 µM in assay [1]; 86.3 µM in the assay with U-87 MG; > 100 µM in assay [2].
For the compound `COC(C)(C)CCC[C@@](C)(O)[C@H]1CC[C@]2(C)[C@@H]1[C@H](O)C[C@@H]1[C@@]3(C)CCC(=O)C(C)(C)[C@@H]3CC[C@]12C`, the IC50 in the assay with HeLa was > 100 µM; in the assay with A549, 39.9 µM; with MCF7, 50.3 µM; in assay [1], 78.6 µM; with U-87 MG, > 100 µM; in assay [2], > 100 µM.
Take `CC(C)(O)CCC[C@@](C)(O)[C@H]1CC[C@]2(C)[C@@H]1[C@H](O)C[C@@H]1[C@@]3(C)CCC(=O)C(C)(C)[C@@H]3CC[C@]12C`: the IC50 is > 100 µM in the assay on HeLa; 25.7 µM in the assay with A549; 66.6 µM in the assay with MCF7; > 100 µM in assay [1]; > 100 µM with U-87 MG; > 100 µM in assay [2].
For `CC1(C)CCC[C@](C)([C@H]2CC[C@]3(C)[C@@H]2[C@H](O)C[C@@H]2[C@@]4(C)CC(C#N)=C(O)C(C)(C)[C@@H]4CC[C@]23C)O1`, the IC50 was 12.7 µM in the assay with HeLa; 12.9 µM with A549; 29.7 µM in the assay with MCF7; 25.7 µM in assay [1]; 41.6 µM in the assay with U-87 MG; > 100 µM in assay [2].
Take `CC(C)(O)CCC[C@@](C)(O)[C@H]1CC[C@]2(C)[C@@H]1C(=O)C[C@@H]1[C@@]3(C)CC[C@H](O)C(C)(C)[C@@H]3CC[C@]12C`: the IC50 in the assay with HeLa was > 100 µM; in the assay on A549, 50.6 µM; in the assay with MCF7, > 100 µM; in assay [1], 66.5 µM; with U-87 MG, > 100 µM; in assay [2], > 100 µM.
On to `CC1(C)CCC[C@](C)([C@H]2CC[C@]3(C)[C@@H]2[C@H](O)C[C@@H]2[C@@]4(C)Cc5cnc(N)nc5C(C)(C)[C@@H]4CC[C@]23C)O1`, for which the IC50 in the assay on HeLa is 69.4 µM; in the assay on A549, 26.9 µM; in the assay with MCF7, 27.9 µM; in assay [1], 45.7 µM; with U-87 MG, 82.6 µM; in assay [2], > 100 µM.
Turning to `O=c1[nH]cc(F)c(=O)[nH]1` [FLUOROURACIL], the IC50 in the assay on HeLa stood at 28.2 µM; in assay [1] it was 33.3 µM; with U-87 MG, 22 µM; in assay [2], 34.8 µM.
